Patent US12708791B2, “Management of dermal neurofibromatosis lesions” (Sun Pharmaceutical Industries, Inc., priority 2020, dated 2026)
Where “and” joins values, the source holds several entries; their conditions need not be identical. Equal values may be shown once.

Legend:
Format in all cases: in vivo, human
neurofibroma lesions [1] = assay: Lesion size and growth rate after PDT treatment
From the text: (§1) (day 2), and 2 to 4 (day 14-28) weeks after light treatment, for evaluation of cutaneous adverse events. At day 2, tumors were biopsied using a punch technique and subjected to light microscopy exam, TUNEL assay (DeadEnd™ Colorimetric TUNEL System, Promega, Madison, WI), and DAPI (4′,6-diamidino-2-phenylindole) staining (ab228549, Abcam, Cambridge, MA). Additional follow-up visits for measurement of lesions were made at periods of 3 months up to one year. See FIG. 1 for a schematic of the study design. The primary outcome for this clinical study was MTD, as measured in the dose escalation using the DLT as defined above. A secondary outcome measured efficacy defined by change in lesion size. The area of the lesion was estimated at baseline and during follow-up visits by measuring the long and short axis of the lesion. Average growth rates were calculated and comparisons made between ALA-treated and placebo lesions within the same subject. The null hypothesis was that there would be no difference in the growth rates of ALA-treated lesions when paired with same-subject placebo lesions. The alternative hypothesis was there would be a difference in the ALA and placebo lesion growth rates.

[2] = system: superficial dermal neurofibromas; assay: Photosensitizer uptake and conversion: PpIX fluorescence in excised tumors by confocal microscopy
Experimental: Four adult subjects were enrolled (2 males, 2 females) in part 1. Three tumor groups for each subject consisted of untreated negative controls, tumors treated with drug vehicle only, and ALA (Levulan® Kerastick® Topical Solution, Sun Pharma, Wilmington, MA, USA) treated tumors. Treated tumors were incubated with ALA or vehicle three hours (2 subjects) or overnight (2 subjects), then excised and subjected to fluorescence microscopy studies to measure mean fluorescence indicating PpIX conversion in tumors. Four adult subjects (2 males, 2 females) participated in part 1. Ages ranged from 39 to 67 yrs.
Photosensitizer Uptake: Treated tumors were incubated with ALA or vehicle three hours (2 subjects) or overnight (2 subjects), then excised and subjected to fluorescence microscopy studies to measure mean fluorescence indicating PpIX conversion in tumors. Importantly, ALA delivery for the subjects undergoing overnight incubation was assisted using microneedling (Dermapen®, Salt Lake City, Utah) of the tumors. […] The primary outcome measure was the ratio of mean fluorescence intensity in tumors compared to adjacent normal tissue, as determined by confocal microscopy. PpIX signals were detected with excitation at 405 nm and emission with a 600 nm long pass filter.

neurofibromas [3] = assay: TUNEL assay for apoptotic cell death in tumors biopsied at day 2; settings: all TUNEL evaluated tumor samples, five subjects; p=0.002 vs vehicle
From the text: as §1

neurofibromas [4] = assay: Light microscopy exam (hematoxylin & eosin) of tumors biopsied at day 2; settings: ALA-treated tumors, day 2 after PDT
From the text: as §1

neurofibroma lesions [5] = system: neurofibroma lesions
Experimental: Nine adult subjects participated in part 2, four male and five female. Ages ranged from 39 to 69, with a median of 58. For each subject neurofibromalesions were selected for treatment with ALA (3-6 lesions) and vehicle (3-6 lesions) delivered with microneedling. Following an overnight (16-18 hrs.) incubation time, all treated neurofibromas were illuminated with red light at 633 nm and 105 mW/cm^2 (Omnilux Revive® LED illuminator, Photo Therapeutics, Montgomeryville, PA, USA). The dose escalation study included doses of 50, 100 or 200 J/cm^2. Each subject received one single treatment.
Study Design: This study followed a 3+3 Phase I trial design, subjects were treated starting at a dose level of 50 J/cm^2. Dose escalation was performed only after a minimum of three subjects had been evaluated at the current level. If dose-limiting toxicity (DLT) occurred in 1 of 3 subjects, 3 more subjects would be evaluated at that dose level. DLT was defined as pain during irradiation requiring cessation of the light treatment, or any serious cutaneous adverse events, such as erosions or blistering or crusting of the skin. If 0 of these 3 subjects experienced DLT, then the dose was escalated (only one DLT in six subjects). If DLT occurred in 1 of the additional 3 subjects, the […] tolerable dose (MTD) had been exceeded (two DLTs in six subjects) and 3 more subjects would be treated at the next lower dose (if only 3 subjects had been treated previously at that dose). […] The MTD is defined as that dose level immediately below the dose level at which 2 subjects of a cohort (three or six subjects) experience DLT.
as §1

NCC(=O)CCC(=O)O [ALA, 5-aminolevulinic acid]
Tumor size change (neurofibroma lesions [1]; measured at 2, 4 and 12 weeks after treatment, five subjects): did not show significant change
Growth rate ALA (neurofibroma lesions [1]; post PDT treatment, individual subjects): −0.073 (0.063) mm^2/day and 0.028 (0.040) mm^2/day and 0.097 (0.103) mm^2/day and 0.375 (00157) mm^2/day and −0.024 (0.030) mm^2/day
Difference in growth rates (ALA vs placebo) (neurofibroma lesions [1]; post PDT treatment, individual subjects, same-subject placebo lesions): 0.034 mm^2/day and −0.239 mm^2/day and 0.097 mm^2/day and −0.440 mm^2/day and −0.110 mm^2/day
Fluorescence compared to adjacent normal tissue ([2]; microneedled, overnight incubation): significant fluorescence
Fluorescence in the apparent tumor zones ([2]; topical ALA, incubated 3 hrs., excised tumors from two subjects): no fluorescence
Average number of apoptotic cells per visual field (neurofibromas [3]): 42.5±19.9
Infiltrate on light microscopy (neurofibromas [4]): mixed infiltrate consisting of lymphocytes, neutrophils, and rare eosinophils
Duration of post inflammatory hyperpigmentation (neurofibroma lesions [5]; ALA-PDT treated NF lesions): up to 3 months
Time by which edema and redness subsided (neurofibroma lesions [5]; ALA-PDT treated NF lesions): ≤ 2 days
Blister formation, erosion or crusting (neurofibroma lesions [5]; human, in vivo): no blister formation, erosion or crusting
Erythema and edema around lesions (neurofibroma lesions [5]; human, in vivo): marked erythema and edema
MTD (light dose) (neurofibroma lesions [5]; human, in vivo): 100 J/cm^2
Pain and discomfort induced by red light treatment (neurofibroma lesions [5]; human, in vivo): marked pain and discomfort
Subjects with DLT (pain requiring cessation of the light treatment) (neurofibroma lesions [5]; human, in vivo): One subject
Duration of erythema and edema (neurofibroma lesions [5]; red light 105 mW/cm^2, 50 or 100 J/cm^2): at least 48 hrs.
